From the NIST ThermoML archive (doi:10.1016/j.tca.2014.02.019)

Test: xn = mol fraction of the nth substance listed
Settings: 101 kPa, Liquid; for viscosity: Falling or rolling sphere viscometry; for mass density: Vibrating tube method

CCOS(=O)(=O)[O-].CC[N+]1(C)CCCCC1 [1-ethyl-1-methylpiperidinium ethyl sulfate] + O
Settings	mass density, 298.15 K [kg/m3]	mass density, 303.15 K [kg/m3]	mass density, 308.15 K [kg/m3]	mass density, 313.15 K [kg/m3]	mass density, 318.15 K [kg/m3]	viscosity, 298.15 K [mPa·s]	viscosity, 303.15 K [mPa·s]	viscosity, 308.15 K [mPa·s]	viscosity, 313.15 K [mPa·s]	viscosity, 318.15 K [mPa·s]
x1 = 0.106	1113.1	1109.81	1106.45	1103.05	1099.61	7.436	6.222	5.272	4.518	3.91
x1 = 0.1407	1128.31	1124.96	1121.5	1118.01	1114.5	11.14	9.197	7.687	6.508	5.576
x1 = 0.2161	1148.02	1144.56	1141.12	1137.63	1134.17	22.79	18.22	14.99	12.34	10.38
x1 = 0.2643	1155.38	1152	1148.59	1145.18	1141.75	31.79	25.04	20.4	16.7	14.03
x1 = 0.3605	1164.49	1161.22	1157.92	1154.61	1151.3	54.56	42.54	33.84	27.55	22.7
x1 = 0.4662	1170.4	1167.23	1164.02	1160.8	1157.58	96.57	74.01	57.65	45.97	37.27
x1 = 0.5583	1173.75	1170.68	1167.53	1164.37	1161.21	159.1	119.5	91.73	71.4	56.71
x1 = 0.6591	1176.55	1173.32	1170.15	1167.05	1163.94	276.5	202.2	150.9	115.8	89.86
x1 = 0.7296	1177.92	1174.77	1171.56	1168.39	1165.32	419.2	296.9	218.5	163.1	123.9
x1 = 0.8133	1179.24	1176.06	1172.89	1169.71	1166.53	690.5	473.2	333.5	242.2	171.1
x1 = 1	1181.33	1178.23	1175.1	1171.79	–	1821	1186	795.7	549.9	391.8
